Results from publication PMC5882164, “A novel calcimimetic agent, evocalcet (MT-4580/KHK7580), suppresses the parathyroid cell function with little effect on the gastrointestinal tract or CYP isozymes in vivo and in vitro” (PLoS ONE, 2018).
Values joined by “and” are separate entries in the source; they are usually repeats but may differ in a detail not shown here. Identical values can stand only once.

Assay: Plasma concentrations of evocalcet after repeated oral administration to 5/6 nephrectomized rats
Assay type: in vivo, rat
Settings: 5/6 Nx rats
Procedure: In the single-dose study, blood samples were collected from the tail vein before and at 0.5, 2, 4, 8, 24, 48, and 72 h after the oral administration of vehicle (0.5% methyl cellulose solution) or evocalcet (0.03, 0.1, 0.3, or 1 mg/kg). In the repeated-dose study, vehicle or evocalcet was orally administered to the respective groups once daily for 14 days. Blood samples were obtained from the tail vein before the first administration and after the seventh and last administrations.
The plasma concentrations of evocalcet were determined after single or repeated oral administration in both normal and 5/6 Nx rats. The pharmacokinetic (PK) parameters of the rat plasma concentrations were calculated individually using Phoenix WinNonlin 6.2, a PK analysis software program (Pharsight Corporation, Sunnyvale, CA).

C[C@@H](N[C@H]1CCN(c2ccc(CC(=O)O)cc2)C1)c1cccc2ccccc12 [evocalcet]
Plasma concentration (repeated oral 0.03 mg/kg, Day 1, 0.5 h, individual rats, 0.03 mg/kg): 36.58 ng/mL and 70.85 ng/mL and 82.54 ng/mL and 69.68 ng/mL and 77.69 ng/mL and 41.93 ng/mL and 76.13 ng/mL | Plasma concentration (repeated oral 0.03 mg/kg, Day 1, 0.5 h, mean): 64.96 ng/mL | Plasma concentration (repeated oral 0.03 mg/kg, Day 1, 24 h, individual rats, 0.03 mg/kg): 1.641 ng/mL and 1.374 ng/mL and 5.810 ng/mL and 8.969 ng/mL and 1.766 ng/mL and 7.813 ng/mL and 3.603 ng/mL | Plasma concentration (repeated oral 0.03 mg/kg, Day 1, 24 h, mean): 4.696 ng/mL | Plasma concentration (repeated oral 0.03 mg/kg, Day 7, 24 h, individual rats, 0.03 mg/kg): 2.975 ng/mL and 2.144 ng/mL and 14.97 ng/mL and 24.57 ng/mL and 7.857 ng/mL and 2.119 ng/mL and 5.014 ng/mL | Plasma concentration (repeated oral 0.03 mg/kg, Day 7, 24 h, mean): 6.838 ng/mL | Plasma concentration (repeated oral 0.03 mg/kg, Day 14, 0.5 h, individual rats, 0.03 mg/kg): 19.34 ng/mL and 56.51 ng/mL and 53.07 ng/mL and 90.16 ng/mL and 75.39 ng/mL and 23.11 ng/mL and 72.02 ng/mL | Plasma concentration (repeated oral 0.03 mg/kg, Day 14, 0.5 h, mean): 51.46 ng/mL | Plasma concentration (repeated oral 0.03 mg/kg, Day 14, 24 h, individual rats, 0.03 mg/kg): 3.012 ng/mL and 3.971 ng/mL and 9.010 ng/mL and 15.92 ng/mL and 10.68 ng/mL and 0.6289 ng/mL and 6.008 ng/mL | Plasma concentration (repeated oral 0.03 mg/kg, Day 14, 24 h, mean): 9.081 ng/mL | Plasma concentration (repeated oral 0.1 mg/kg, Day 1, 0.5 h, individual rats, 0.1 mg/kg): 202.3 ng/mL and 254.1 ng/mL and 209.7 ng/mL and 142.8 ng/mL and 254.2 ng/mL and 143.9 ng/mL and 56.83 ng/mL and 269.5 ng/mL | Plasma concentration (repeated oral 0.1 mg/kg, Day 1, 24 h, individual rats, 0.1 mg/kg): 15.16 ng/mL and 12.10 ng/mL and 8.688 ng/mL and 14.16 ng/mL and 21.79 ng/mL and 16.89 ng/mL and 67.75 ng/mL and 32.61 ng/mL | Plasma concentration (repeated oral 0.1 mg/kg, Day 7, 24 h, individual rats, 0.1 mg/kg): 58.71 ng/mL and 48.75 ng/mL and 30.51 ng/mL and 37.24 ng/mL and 78.95 ng/mL and 69.59 ng/mL and 161.4 ng/mL and 61.03 ng/mL | Plasma concentration (repeated oral 0.1 mg/kg, Day 14, 0.5 h, individual rats, 0.1 mg/kg): 127.4 ng/mL and 39.41 ng/mL and 36.70 ng/mL and 54.83 ng/mL and 93.73 ng/mL and 108.2 ng/mL and 128.5 ng/mL and 174.0 ng/mL | Plasma concentration (repeated oral 0.1 mg/kg, Day 14, 24 h, individual rats, 0.1 mg/kg): 5.812 ng/mL and 5.988 ng/mL and 9.558 ng/mL and 3.499 ng/mL and 32.22 ng/mL and 49.20 ng/mL and 104.7 ng/mL and 11.96 ng/mL | Plasma concentration (0.03 mg/kg oral once daily, Day 1, 0.5 h, mean, n = 12): 64.96 ng/mL | Plasma concentration (0.03 mg/kg oral once daily, Day 1, 24 h, mean, n = 12): 4.696 ng/mL | Plasma concentration (0.03 mg/kg oral once daily, Day 7, 24 h, mean, n = 12): 6.838 ng/mL | Plasma concentration (0.03 mg/kg oral once daily, Day 14, 0.5 h, mean, n = 12): 51.46 ng/mL | Plasma concentration (0.03 mg/kg oral once daily, Day 14, 24 h, mean, n = 12): 9.081 ng/mL | Plasma concentration (0.1 mg/kg oral once daily, Day 1, 0.5 h, mean, n = 12): 204.2 ng/mL | Plasma concentration (0.1 mg/kg oral once daily, Day 1, 24 h, mean, n = 12): 21.78 ng/mL | Plasma concentration (0.1 mg/kg oral once daily, Day 7, 24 h, mean, n = 12): 53.46 ng/mL | Plasma concentration (0.1 mg/kg oral once daily, Day 14, 0.5 h, mean, n = 12): 133.8 ng/mL | Plasma concentration (0.1 mg/kg oral once daily, Day 14, 24 h, mean, n = 12): 29.24 ng/mL | Plasma concentration (0.3 mg/kg oral once daily, Day 1, 0.5 h, mean, n = 12): 545.5 ng/mL | Plasma concentration (0.3 mg/kg oral once daily, Day 1, 24 h, mean, n = 12): 90.48 ng/mL | Plasma concentration (0.3 mg/kg oral once daily, Day 7, 24 h, mean, n = 12): 190.6 ng/mL | Plasma concentration (0.3 mg/kg oral once daily, Day 14, 0.5 h, mean, n = 12): 686.9 ng/mL | Plasma concentration (0.3 mg/kg oral once daily, Day 14, 24 h, mean, n = 12): 102.1 ng/mL | Plasma concentration (1 mg/kg oral once daily, Day 1, 0.5 h, mean, n = 12): 1635 ng/mL | Plasma concentration (1 mg/kg oral once daily, Day 1, 24 h, mean, n = 12): 285.7 ng/mL | Plasma concentration (1 mg/kg oral once daily, Day 7, 24 h, mean, n = 12): 557.2 ng/mL | Plasma concentration (1 mg/kg oral once daily, Day 14, 0.5 h, mean, n = 12): 1769 ng/mL | Plasma concentration (1 mg/kg oral once daily, Day 14, 24 h, mean, n = 12): 490.6 ng/mL
